These compounds were tested on SKOV3 (assay: Testing with ovarian cancer cell lines (SKOV3)). Conditions: ovarian cancer cell line SKOV3.
Assay type: cell-based

Compound	Additional Uses and Properties
OC(Cn1cncn1)(Cn1cncn1)c1ccc(F)cc1F [Fluconazole]	Antineoplastic (as per testing
Cc1oncc1C(=O)Nc1ccc(C(F)(F)F)cc1 [Leflunomide]	Antineoplastic, as per testing
Clc1ccc(COC(Cn2ccnc2)c2ccc(Cl)cc2Cl)c(Cl)c1 (stereo not drawn) [Miconazole]	Antineoplastic (as per testing
CO[C@@]12[C@H](COC(N)=O)C3=C(C(=O)C(C)=C(N)C3=O)N1C[C@@H]1N[C@@H]12 [Mitomycin]	Antineoplastic, as per testing

Each compound was assayed on S aureous (assay: Antibacterial testing with S aureous). Conditions: not given.
Assay type: cell-based

Compound	Additional Uses and Properties
O=c1[nH]cc(F)c(=O)[nH]1 [5-Fluorouracil]	Antibacterial as per testing
CC(=O)O[C@H]1C(=O)[C@@]2(C)[C@H]([C@H](OC(=O)c3ccccc3)[C@]3(O)C[C@H](OC(=O)[C@H](O)[C@@H](NC(=O)c4ccccc4)c4ccccc4)C(C)=C1C3(C)C)[C@]1(OC(C)=O)CO[C@@H]1C[C@@H]2O [Paclitaxel]	Antibacterial as per testing

Source: patent US20170313808A1, “BIOACTIVE POLYMERIC LIQUID FORMULATIONS OF ABSORBABLE, SEGMENTED APLIPHATIC POLYURETHANE COMPOSITIONS” (priority 2008, published 2017)
